The values below come from patent publication US8906416B2, “Xanthenedione derivatives for the treatment of pigmentation and skin ageing disorders” (Pierre Fabre Dermo-Cosmetique, priority 2010, dated 2014).

Test [1] has as its system Melanoderm-B (Black) reconstructed epidermis. Nature of the test: Reconstructed epidermis depigmenting activity, Melanoderm-B. In kind it is cell-based. The settings on record: D3, D7, D10 and D14, 0.5% in Simplex formula. The source says: (§1) The compounds of examples 8 and 21 were formulated at the concentration of 0.5% in a Simplex formula according to the example of composition A. Melanoderm-B (Black) or Melanoderm A (Asian) (MatTek, USA) reconstructed epidermis models were used. The reference compound chosen is kojic acid titrated to 2% in aqueous solution. The culture medium is changed every day. The products are applied by topical mode on the epidermis every two days. For the application, the epidermises are rinsed with PBS and the product to be tested is then applied. A preliminary toxicity study made it possible to determine that the dose to apply for each treatment is 25 μL. The tissues were observed on D3, D7, D10, D14 (Melanoderm B) or D6, D10, D14 and D21 (Melanoderm A) by 3 independent experts.

For test [2], the system named is B16-F10 cells. As to the kind of experiment: Melanin assay test in B16-F10 cells. In kind it is cell-based, murine. The following applies: Mus musculus, B16-F10; 0.1 μM α-MSH stimulated, 72 hours treatment; read-out: Results activity B16-F10 IC50 (50% melanin synthesis inhibition). How it is done: This involves a test of measuring the synthesis of melanin by colorimetric assay on a murine melanoma cell line: the B16-F10 line. This test enables the depigmenting power of active ingredients to be evaluated.
The B16-F10 cells are cultured in 96-well plates in DMEM medium, supplemented with FCS (foetal calf serum), and incubated 24 hours at 37° C., 5% CO2. The cells are then stimulated with 0.1 μM α-MSH (to stimulate the synthesis of melanin, the stimulation observed is around 150%) and treated 72 hours with the active ingredients to be tested. Each concentration of active ingredient is tested at least in triplicate. The total melanin followed by the intracellular melanin dissolved in the lysis buffer are then assayed by absorbance reading at 405 nm. The total proteins are assayed in the lysate and the results are expressed in mg melanin/mg proteins. The percentage of activity is calculated as follows:
[formula] A negative value indicates an inhibition, whereas a positive value indicates an induction of the synthesis of melanin. General Experimental Conditions: • Equipment: • CO2 cell incubator (Heraeus), Oven, Centrifuge (Heraeus), Laminar air flow fume hood, 96-well clear bottomed plates—Falcon, sterile cones—Treff Lab, Polylabo, Mithras LB940 (Berthold Technologies)-154/MIPA/003 Biological Equipment: • B16-F10 cell line between P10 and P20 (murine melanocytes) (ATCC, CRL-6475) • Reagents • DMEM without phenol red (GIBCOBRL, 31053-028), 200 mM Glutamax-I Supplement (GIBCOBRL, 35050-038), D-PBS (GIBCOBRL, 14190-094), Foetal calf serum (Invitrogen, 10270-098), Trypsine-EDTA (GIBCOBRL, 25300-054), NaOH (Sigma, S8045-500G), DMSO (Sigma, 471267-1L), Nle, Phe—Melanocyte Stimulating Hormone (Sigma, M-8764), Melanin (Sigma, M-0418), BCA-COPPER (SIGMA, B9643 AND C2284), BSA (SIGMA, P0914) B) Test for the Study of the Antioxidant Capacity by Chemiluminescence (Photochem Analytik Jena) Principle: […]

In test [3] the test system is Melanoderm A (Asian) reconstructed epidermis. Nature of the test: Reconstructed epidermis depigmenting activity, Melanoderm A. In kind it is cell-based.
Excerpt: as §1, with “experts. The formula containing example 8 was also tested in a Melanoderm-A (Asian) model. The coloration of the epidermis is compared to that of the simplex control formula.” for “experts.”

For test [4] the following is noted: reference products of the interpretation scale; cited from earlier work.

SMILES strings stand for the structures.

Consider `COc1cc(C2C3=C(CC(C)(C)CC3=O)OC3=C2C(=O)CC(C)(C)C3)ccc1O[C@@H]1OC(CO)[C@@H](O)C(O)C1O` (stereo in doubt) [Example 21, 9-(3-methoxy-4-((3S,4 S,5S)-3,4,5-trihydroxy-6-(hydroxymethyl)tetrahydro-2H-pyran-2-yloxy)phenyl)-3,3,6,6-tetramethyl-3,4,5,6,7,9-hexahydro-1H-xanthene-1,8(2H)-dione], for which the “Coloration of the epidermis compared to negative control (water)” value in test [1] is on record as “macroscopic depigmenting effect”. Besides, in test [2], the half-maximal inhibitory concentration (IC50) was 69 µM.

With `CCCCCCCCCCCCCCCC(=O)Oc1ccc(C2C3=C(CC(C)(C)CC3=O)OC3=C2C(=O)CC(C)(C)C3)cc1OC` [Example 8, 2-methoxy-4-(3,3,6,6-tetramethyl-1,8-dioxo-2,3,4,5,6,7,8,9-octahydro-1H-xanthen-9-yl)phenyl palmitate], the “Coloration of the epidermis compared to negative control (water)” value in test [1] is listed as “macroscopic depigmenting effect”. In test [3] (0.5% in Simplex formula), the “Melanin assay: reduction of melanin with respect to epidermises treated by the Simplex control formula” value worked out at 4.1 µg. In test [3] (D6, D10, D14, D21, 0.5% in Simplex formula), the “Coloration of the epidermis compared to the simplex control formula” value is “macroscopic depigmenting effect”.

With `O=C1O[C@H]([C@@H](O)CO)C(O)=C1O` [Vitamin C], in test [4], the “Activity (scale for interpreting the results)” value is on record as “Very good” and the “μg sample for 1 μg of Trolox (scale for interpreting the results)” value is given as 0.1 to 3.0 μg sample for 1 μg of Trolox.

The term IC50 denotes the concentration needed to halve the response being measured.
